Assay results taken from PMC8769072, “Proteome‐scale mapping of binding sites in the unstructured regions of the human proteome” (Molecular Systems Biology, 2022).

Tested on: immobilized GST-tagged bait protein domains
Experiment: ProP-PD phage selections (HD2 P8, sublibraries, HD2 P3, HD1 P8) with NGS and confidence level
Format: binding, human
Conditions: for HD2_nucleus confidence: library HD2 P8 nucleus
[1] = HD2 library, bait TSG101_UEV__Q99816_1_145, known motif instance of the benchmarking set found (TRUE) or not found (FALSE) among selected peptides
[2] = bait CLTC_Clathrin-propeller__Q00610_1_364, library HD2, benchmarking set of validated motif instances, TRUE = motif instance recovered in the ProP-PD selection
[3] = HD2 library, bait SUMO1_SUMO__P63165_1_101, known motif instance of the benchmarking set found (TRUE) or not found (FALSE) among selected peptides
[4] = library HD2, bait EPS15_EH__P42566_121_215, whether the validated benchmark motif instance was recovered in the ProP-PD selection (TRUE/FALSE)
[5] = library HD2, bait EIF4E_eIF4E__P06730_1_217, whether the validated benchmark motif instance was recovered in the ProP-PD selection (TRUE/FALSE)
[6] = HD2 library, bait TNKS_TANK-peptide-bind__O95271_174_649, known motif instance of the benchmarking set found (TRUE) or not found (FALSE) among selected peptides
[7] = bait MAP1LC3B_ATG8 (Q9GZQ8 2-119), HD2 library, benchmark motif instance recovered in the ProP-PD selection (TRUE/FALSE)
[8] = library HD2, bait WDR5_WD_1234567_P61964_21_334, validated benchmark motif instance, in_library_check TRUE, TRUE/FALSE = instance recovered in ProP-PD selection
[9] = library HD2, bait TSG101_UEV__Q99816_1_145, validated benchmark motif instance, in_library_check TRUE, TRUE/FALSE = instance recovered in ProP-PD selection
[10] = library HD2, bait VASP_EVH1__P50552_1_114, validated benchmark motif instance, in_library_check TRUE, TRUE/FALSE = instance recovered in ProP-PD selection
[11] = library HD2, bait EPS15_EH__P42566_121_215, best matching peptide
[12] = library HD2, bait EPS15_EH__P42566_121_215, confidence level of best matching peptide (4 High, 2-3 Medium, 1 Low)
[13] = library HD2, bait USP7_MATH-TRAF__Q93009_53_206, validated benchmark motif instance, in_library_check TRUE, TRUE/FALSE = instance recovered in ProP-PD selection
[14] = bait KPNA4_Arm (O00629 68-487), HD2 library, benchmark motif instance recovered in the ProP-PD selection (TRUE/FALSE)
[15] = bait PEX14_Pex14__O75381_16_84, HD2 library, whether the validated benchmark motif instance was recovered in the ProP-PD selection (TRUE/FALSE)

PAPALPPKPPKPTTVA
best_specificity (bait CRK_SH3_1_P46108_124_198, library HD2, best matching peptide): 1
best_confidence (bait CRK_SH3_1_P46108_124_198, library HD2, confidence level of best matching peptide (4 = High, 2 or 3 = Medium, 1 = Low)): 2

PAPAPLPPPSAPSLQPSRKL
motif_found [1]: FALSE

PATKEISLLDLEDFTPPSV [AP3B2]
motif_found [2]: FALSE

PEISLEAEPIELVETAGDEIVD
motif_found [3]: FALSE

PFEEPTCINPFEMDSDSGP
motif_found [4]: FALSE

PFSEQASLLDLDFDPLPPV [BIN1]
motif_found [2]: FALSE

PGADVVDLTLDSSSSS
best_confidence (bait SUMO1_SUMO__P63165_1_101, HD2 library, confidence level (1-4) of best matching selected peptide): 2
best_specificity (bait SUMO1_SUMO__P63165_1_101, HD2 library, specificity score of best matching selected peptide): 1
motif_found (bait SUMO1_SUMO__P63165_1_101, HD2 library, whether the validated benchmark motif instance was recovered in the ProP-PD selection (TRUE/FALSE)): TRUE

PGGGHPAPSWVAFAHT
HD2 confidence (bait AP2B1_adaptin__P63010_700_937, HD2 P8 selection, non primary paralogue peptide match, confidence level -4 to 4: 4 = High, 3 or 2 = Medium, 1 = Low, 0 = Filtered/Noise): 4

PGGTRIIYDRKFLLDRRNSPM
motif_found [5]: FALSE

PGGTRIIYDRKFLLECKNSPI
motif_found [5]: FALSE

PGPPAPNTNPFLL------
motif_found [4]: FALSE

PGSAPPPQAQGPPYPTYPGYPGYCQ,QAQGPPYPTYPGY [PDCD6IP]
motif_found (bait CEP55_EABR__Q53EZ4_160_217, library HD2, benchmarking set of validated motif instances, TRUE = motif instance recovered in the ProP-PD selection): FALSE

PIPHDGNLYPRLYPELSQY [SDCBP 45-49]
motif_found (HD2 library, bait PDCD6IP_Alix-V-domain__Q8WUM4_360_702, benchmark motif instance, in_library_check FALSE, in_library_coverage 0): FALSE

PLIDLPLIDFCDTPEA
HD2_nc confidence (bait CLTC_Clathrin-propeller__Q00610_1_364, HD2 P8 nucleocytoplasmic sublibrary, confidence level (4 = High, 2-3 = Medium, 1 = Low)): 4
HD2_nc mean counts (bait CLTC_Clathrin-propeller__Q00610_1_364, HD2 P8 nucleocytoplasmic sublibrary, mean NGS counts over replicate selections): 154.7
HD2_nc count proportions (bait CLTC_Clathrin-propeller__Q00610_1_364, HD2 P8 nucleocytoplasmic sublibrary, mean proportion of NGS counts): 0.002602

PLTKDVSLLDLDDFNPVST [AP3B1]
motif_found [2]: FALSE

PLYTSPSLPNITLGLP
best_specificity (bait ANKRA2_Ank__Q9H9E1_142_313, library HD2, best matching peptide): 1
best_confidence (bait ANKRA2_Ank__Q9H9E1_142_313, library HD2, confidence level of best matching peptide (4 = High, 2 or 3 = Medium, 1 = Low)): 3

PMLPDLTLEAWPSTDK
confidence (library HD, bait ANKRA2_Ank__Q9H9E1_142_313, ProP-PD peptides with disease-related mutations): 3

PPAEEPEARPDGEGSPGKARPG
motif_found [6]: FALSE

PPAGLNSSWVELPMNSSNG
motif_found [7]: FALSE

PPAPVNDEPIVIED-------
motif_found [3]: FALSE

PPDTKLSKLDVLLLAT
HD2_nucleus confidence (bait SIN3A_PAH__Q96ST3_295_383): 4

PPGPPPPYHAHAHLHH
HD confidence (bait YAP1_WW_1_P46937_169_207, library HD): 3
p3_HD2 confidence (bait YAP1_WW_1_P46937_169_207, library HD2 P3): 2
p3_HD2 count proportions (bait YAP1_WW_1_P46937_169_207, library HD2 P3, mean normalised NGS counts): 0.001797
p3_HD2 mean counts (bait YAP1_WW_1_P46937_169_207, library HD2 P3, mean raw NGS counts, all selections): 44.67
HD2 confidence (bait YAP1_WW_1_P46937_169_207, library HD2 P8): 4
HD2_nucleus confidence (bait YAP1_WW_1_P46937_169_207): 4
HD count proportions (bait YAP1_WW_1_P46937_169_207, library HD, mean normalised NGS counts): 0.02186
HD mean counts (bait YAP1_WW_1_P46937_169_207, library HD, mean raw NGS counts, all selections): 187.3

PPLNPHGAARAEVYLRKCTFD
motif_found [8]: FALSE

PPLNPHGSARAEVHLRKSAFD
motif_found [8]: FALSE

PPMGEVVTPTAPQEPPESVR
motif_found [9]: FALSE

PPPEDFPLPPPPLAGDGDD
motif_found [10]: FALSE

PPPIEESFPPAPLEEEIFP
motif_found [10]: FALSE

PPPPPEDFPLPPPPLAGDG
motif_found [10]: FALSE

PPRLPELAPTAPLPYPAPEA
motif_found [1]: FALSE

PQLPHLQRSPPDGQSF
best_specificity (HD2 library, bait TNKS_TANK-peptide-bind__O95271_174_649, best matching selected peptide): 1
best_confidence (HD2 library, bait TNKS_TANK-peptide-bind__O95271_174_649, confidence level of best matching selected peptide): 2
motif_found [6]: TRUE

PQPKLPYLPTFPFSMP
HD2 confidence (bait ANKRA2_Ank__Q9H9E1_142_313, HD2 P8 selection, confidence level -4 to 4: 4 = High, 3 or 2 = Medium, 1 = Low, 0 = Filtered/Noise): 2

PQYLNPFDEPEAFVTI
best_specificity [11]: 1
best_confidence [12]: 2
motif_found [4]: TRUE

PREHQTGSARSEGYYPISKKE
motif_found [8]: FALSE

PSENSNEFEWEDDLPKPKTTEVIR
motif_found (library HD2, bait KLC1_TPR__Q07866_203_497, whether the validated benchmark motif instance was recovered in the ProP-PD selection (TRUE/FALSE)): FALSE

PSNPDLDAGVSEHSGDWLD
motif_found [13]: FALSE

PSTNPFVAAAGPSVAS
best_specificity [11]: 1
best_confidence [12]: 2
motif_found [4]: TRUE

PSTRKDYPAAKRVKLDSVRVLR
motif_found [14]: FALSE

PVLEKDDLMDMDASQQNLF [HIP1]
motif_found [2]: FALSE

PYGDDMTVRKQPEGNPKPDIIE
motif_found [6]: FALSE

QASALSFPAPPSRPLPPDPV [ADAM15]
motif_found (bait CRK_SH3_1_P46108_124_198, library HD2, benchmarking set of validated motif instances, TRUE = motif instance recovered in the ProP-PD selection): FALSE

QDLLELKSVIKLQAWWRGTMIRR,DLLELKSVIKLQAWWRGTMIRREIGGFKMPK [IQCG 397-411]
motif_found (HD2 library, bait CALM1_EF-hand__P0DP23_2_149, benchmark motif instance, in_library_check FALSE, in_library_coverage 0): FALSE

QDYNETDWSQEFISEVTDP
motif_found [15]: FALSE

QELLSVGSKRRRTGGSLRGN
motif_found [14]: FALSE

QELQEEKPSSSHLVSRPST
motif_found [13]: FALSE

QENMRSSPNPFITGLTRTN
motif_found [4]: FALSE

QEPPESVRPSAPPAELEVQA
motif_found [9]: FALSE

QERPLTNKLKRKRRPTSGLHPE
motif_found [14]: FALSE

QFSLYTSPSLPNISLGLQATVTVT [HDAC5]
motif_found (bait ANKRA2_Ank__Q9H9E1_142_313, library HD2, benchmarking set of validated motif instances, TRUE = motif instance recovered in the ProP-PD selection): TRUE

QGSWVELHFSNNGNGG
motif_found (bait MAP1LC3A_ATG8 (Q9H492 2-121), HD2 library, benchmark motif instance recovered in the ProP-PD selection (TRUE/FALSE)): TRUE
best_confidence (bait MAP1LC3A_ATG8 (Q9H492 2-121), HD2 library, confidence level (1-4) of best matching peptide): 3
best_specificity (bait MAP1LC3A_ATG8 (Q9H492 2-121), HD2 library, specificity score of best matching peptide): 1
motif_found [7]: TRUE
best_confidence (bait MAP1LC3B_ATG8 (Q9GZQ8 2-119), HD2 library, confidence level (1-4) of best matching peptide): 3
best_specificity (bait MAP1LC3B_ATG8 (Q9GZQ8 2-119), HD2 library, specificity score of best matching peptide): 1

QLSPNAKEFVYNGGGS
best_confidence (bait PABP-B_PABP__P11940_544_623, HD2 library, confidence level (1-4) of best matching selected peptide): 4
best_specificity (bait PABP-B_PABP__P11940_544_623, HD2 library, specificity score of best matching selected peptide): 1
motif_found (bait PABP-B_PABP__P11940_544_623, HD2 library, whether the validated benchmark motif instance was recovered in the ProP-PD selection (TRUE/FALSE)): TRUE

QMPADTPPPAYLPPEDPM
motif_found (bait NEDD4_WW_4 (P46934 890-928), HD2 library, benchmark motif instance recovered in the ProP-PD selection (TRUE/FALSE)): FALSE

QQGTSDAWVDQFTRPVNTS
motif_found [15]: FALSE

QQHEGPSLNPFDEEDLSSP
motif_found [4]: FALSE

QQKQRQKHFNRQIPAAASLIQTAWRCYAAENPDSSTWKIYIRKAPRSHTLLSPSPKPKKSVVVKKKKFKLDKDNGVTPGEKMLTVPHITCDPPEERRLDHFSVDGYDSSVRKSPTLLEVSMPHFMRTNSFAEDLDLEGETLLTPITHISQLREHHRATIKVIRRMQYFVAKKKFQQARKP [KCNQ1]
motif_found (bait CALM1_EF-hand__P0DP23_2_149, library HD2, benchmarking set of validated motif instances, TRUE = motif instance recovered in the ProP-PD selection): FALSE

QQQLNWKQDSNPLYKSAITTTI
motif_found (HD2 library, bait TLN1_PTB__Q9Y490_309_401, known motif instance of the benchmarking set found (TRUE) or not found (FALSE) among selected peptides): FALSE
